In patent publication US6949558B2, “Enhancement of taxane-based chemotherapy by a CDK1 antagonist” (Yale University, priority 2001, dated 2005):
Numbered stars: 1 amine (or outer) side, 2 acyl side, 3 side chain; on linkers, the order of the positions; unused ones are H or OH. Bridge positions count the residues as written; N and C are the ends. Square brackets hold non-standard residues; d marks the D form. Peptide text beside a SMILES is read from it. I, II: the chains in the order shown. * marks the point of attachment. Actinocin(9to1) = Cc1c2oc3c(C)ccc(C(=O)[*:1])c3nc-2c(C(=O)[*:2])c(N)c1=O; NMeV = CN[C@H](C(=O)O)C(C)C; Cbz = O=C(OCc1ccccc1)*; Sar = CNCC(=O)O; CH2F = FC*

How the values were obtained:
Type in all cases: cell-based, human
[1] = tested on: survivin expression in MCF-7 cells; experiment: Survivin expression by Western blotting in MCF-7 cells; details: for effect on the increase in survivin expression mediated by adriamycin, taxol or 50 J/m^2 UVB: preincubation with cycloheximide 2 mg/ml or actinomycin D 1 μg/ml
Protocol: (§1) Cell Cultures, Proteins and Antibodies: Breast carcinoma MCF-7 and cervical carcinoma HeLa cells (American Type Culture Collection, Manassas, Va.) were maintained in culture according to the manufacturer's specifications. For treatment with genotoxic agents, HeLa or MCF-7 cells were incubated with vehicle (DMSO) or taxol (2 μM, Sigma Chemical Co., St. Louis, Mo.), adriamycin (100 nM, Sigma), cis-platin (3 μM, Sigma) or subjected to ultraviolet B (UVB) irradiation at 50 or 300 J/m^2. In some experiments, HeLa or MCF-7 treated with taxol, adriamycin or UVB as described above were incubated with inhibitors of transcription (actinomycin D, 1 μg/ml) or translation (cycloheximide, 2 mg/ml) before determination of protein expression by Western blotting. […] A replication-deficient adenovirus encoding wild type survivin (pAd-Survivin) or control encoding Green Fluorescence Protein (pAd-GFP) was generated using the pAd-Easy system as described previously (M. Mesri et al. (2001) J. Clin. Invest. 108: 981-90), and propagated in HEK293 cells with purification by CsCl banding. […] Antibodies to p34^cdc2 or bcl-2 were obtained from Pharmingen (San Diego, Calif.) and R&D, respectively. An antibody to β-actin was from Sigma and antibodies to MPM-2 mitotic phosphoproteins was from Upstate Biotechnology (Lake Placid, N.Y.).
(§2) In some experiments, total RNA was extracted from MCF-7 cells at various time intervals after adriamycin treatment, and hybridized with 32 P-labeled survivin cDNA as described previously. Radioactive bands were detected by autoradiography. […] In other experiments, samples were transferred to nylon membranes and analyzed by Western blotting with antibodies to p34^cdc2 (1 μg/ml), survivin (2 μg/ml), or survivinT34* (5 μg/ml).

HeLa cells = experiment: Apoptosis by DNA content analysis and flow cytometry in HeLa cells
[2] = tested on: p34^cdc2 kinase activity (MPM-2 epitope) in HeLa cells; experiment: MPM-2 mitotic phosphoepitope expression (p34^cdc2 kinase activity) in HeLa cells; details: HeLa
[3] = tested on: survivin expression in HeLa cells; experiment: Survivin expression by Western blotting in HeLa cells
Protocol: as §1, §2
In other experiments, HeLa cells were treated with taxol (0.2 μM) for 16 h followed by the DNA damaging agent adriamycin (100 nM, Sigma) or the nucleoside analog 5-Fluorouracil (500 μM, Sigma) for 8-32 h at 37° C. […] In some experiments, HeLa cells were transfected by lipofectamine with a minimal survivin promoter construct upstream of a luciferase reporter gene (pLuc-cyc1.2), as described (F. Li et al. (1998) Nature 396: 580-584). Cells were treated with taxol (2 μM) or UVB (50 J/m2), and analyzed for changes in luciferase activity at increasing time intervals (12-36 h) in a luminometer. Luciferase values were normalized to β-galactosidase expression. […] The immune complexes were separated by SDS gel electrophoresis and analyzed with antibodies to survivin or a-survivinT34* by Western blotting.

MCF-7 cells = experiment: Apoptosis by DNA content analysis and flow cytometry in MCF-7 cells; details: taxol 2 μM, adriamycin 100 nM, cis-platin 3 μM (Example 7)
Protocol: Cervical carcinoma HeLa (functionally inactivated p53) cells or breast carcinoma MCF-7 (wild type p53) cells were plated at 50-60% confluency in C-6 wells. […]
After 4, 8, 16, and 32 hours of incubation, without removing taxol from the wells, purvalanol A was added at three increasing concentrations, 1, 10 and 20 uM (FIG. 1). A control was performed with addition of purvalanol A at the 0-h time point.
The cell populations were harvested at increasing time intervals from the 0-h time point or corresponding to the addition of purvalanol A. Apoptosis was analyzed by DNA content analysis and flow cytometry (DAPI staining).

[4] = tested on: p34^cdc2 kinase activity (MPM-2 epitope) in MCF-7 cells; experiment: MPM-2 mitotic phosphoepitope expression (p34^cdc2 kinase activity) in MCF-7 cells; details: vincristine (FIG. 7)
Protocol: MPM-2 Mitotic Phosphoepitope Expression: For detection of mitotic phosphoproteins (D. D. Vandre et al. (1989) J. Cell Sci. 94: 245-58), MCF-7 cells (1-2×10^5 cells/60 mm dish) were treated with taxol (2 μM), adriamycin (100 nM), 50 or 300 J/m^2 UVB irradiation and cultured for 0, 8, 16, 24 or 36 h at 37° C. Cells were fixed in 70% ethanol, labeled with MPM-2 antibody (6 μg/ml) followed by addition of goat anti-mouse FITC (Boehringer Mannheim) for 1 h at 22° C. in the presence of 5 μg/ml propidium iodide (PI) containing 50 μg/ml RNase A. Samples were analyzed on a FACScan (Becton Dickinson, Mountain View, Calif.), using CellQuest software.
MPM-2 Mitotic Phosphoepitope Expression: For detection of mitotic phosphoproteins (D. D. Vandre et al. (1989) J. Cell Sci. 94: 245-258), MCF-7 cells (1-2×10^5 cells/60 mm dish) were treated with taxol (0.2 μM), or vincristine (100 nM) for increasing time intervals (8-36 h) at 37° C. Cells were fixed in 70% ethanol, labeled with MPM-2 antibody (6 μg/ml; Upstate Biotechnology, Lake Placid, N.Y.) followed by addition of goat anti-mouse FITC (Boehringer Mannheim) for 1 h at 22° C. in the presence of 5 μg/ml propidium iodide containing 50 μg/ml RNAse A. Samples were analyzed on a FACScan (Becton Dickinson, Mountain View, Calif.), using CellQuest software. Data are expressed as %MPM-2 positive cells in the entire population.

[5] = genistein 25 μM or TNF a 5 ng/ml, 48 h

Cc1c2oc3c(C)ccc(C(=O)N[C@@H]4C(=O)N[C@H](C(C)C)C(=O)N5CCC[C@H]5C(=O)N(C)CC(=O)N(C)[C@@H](C(C)C)C(=O)O[C@@H]4C)c3nc-2c(C(=O)N[C@@H]2C(=O)N[C@H](C(C)C)C(=O)N3CCC[C@H]3C(=O)N(C)CC(=O)N(C)[C@@H](C(C)C)C(=O)O[C@@H]2C)c(N)c1=O [actinomycin D] (I: T[dV]P[Sar][NMeV] / II: T[dV]P[Sar][NMeV]; ester I:1-I:C, II:1-II:C; linker I:N-II:N via Actinocin(9to1))
effect on the increase in survivin expression mediated by adriamycin, taxol or 50 J/m^2 UVB [1]: significantly inhibited the increase in survivin expression

COC(=O)C[C@H](NC(=O)[C@H](C)NC(=O)[C@@H](NC(=O)OCc1ccccc1)C(C)C)C(=O)CF [Z-VAD-fink, Z-VAD-fmk] (Cbz-Val-Ala-Asp(OMe)-CH2F)
effect on flavopiridol-induced apoptosis (HeLa cells; preincubation with caspase inhibitor): suppressed flavopiridol-induced apoptosis

O=C1Cc2c([nH]c3ccc([N+](=O)[O-])cc23)-c2ccccc2N1 [alsterpaullone]
MPM-2 mitotic phosphoepitope expression ([2]; taxol 0.2 μM 16 h then Cdk inhibitor for 16 h (Purvalanol A 10 μM, alsterpaullone 20 μM, flavopiridol 250 nM, olomoucine 400 μM)): partially inhibited MPM-2 expression | MPM-2 mitotic phosphoepitope expression ([2]; taxol 0.2 μM 16 h then Cdk inhibitor for 32 h): suppressed mitotic phosphoprotein expression

C[C@@H]1C[C@@H]([C@H](O)CC2CC(=O)NC(=O)C2)C(=O)[C@@H](C)C1 [cycloheximide]
effect on the increase in survivin expression mediated by adriamycin, taxol or 50 J/m^2 UVB [1]: significantly inhibited the increase in survivin expression

TNF a
survivin expression [3, 5]: did not affect survivin expression

O=c1c(-c2ccc(O)cc2)coc2cc(O)cc(O)c12 [genistein]
survivin expression [3, 5]: did not affect survivin expression

N.N.[Cl][Pt][Cl] [cis-platin]
effect on survivin levels ([1]; cis-platin 3 μM): did not affect survivin levels | increased expression of survivin, compared with taxol ([1]; cisplatin 3 μM): less effective | apoptosis (MCF-7 cells): negligible apoptosis | cell cycle arrest (MCF-7 cells): G2/M arrest

O=c1[nH]cc(F)c(=O)[nH]1 [5-FU, 5-Fluorouracil]
enhancement of apoptosis vs single agent treatment (HeLa cells; taxol 0.2 μM 16 h then adriamycin 100 nM or 5-Fluorouracil 500 μM): did not result in enhanced apoptosis

CC[C@]1(O)C[C@H]2CN(CCc3c([nH]c4ccccc34)[C@@](C(=O)OC)(c3cc4c(cc3OC)N(C=O)[C@H]3[C@@](O)(C(=O)OC)[C@H](OC(C)=O)[C@]5(CC)C=CCN6CC[C@]43[C@@H]65)C2)C1 [vincristine]
cdc2 kinase activity [4]: induces cdc2 kinase activity | cell cycle arrest (HeLa cells; vincristine 100 nM): sustained mitotic (prometaphase) arrest | p34^cdc2 kinase activity ([2]; vincristine 100 nM): elevated p34^cdc2 kinase activity | survivin expression ([3]; vincristine 100 nM): increased survivin expression
